From patent publication EP2465840A1, “Terpene ether” (CABB GmbH, priority 2010, dated 2012)
“Also recorded” adds a separate entry of the source.

What was measured:
Assay type in all cases: physicochemical
[1] = Appearance of cleaning formulation after 24 h
[2] = Brookfield viscosity (25°C) of cleaning formulation 24 h after addition of terpene ether
Procedure: Im Rahmen der vorliegenden Erfindung wird die Brookfield-Viskosität einer wässrigen Zusammensetzung vorzugsweise mittels einem RTV Brookfield-Viskosimeter bei 25°C ermittelt, besonders bevorzugt mit einer Spindel # 3 oder # 4.
Die in Tabelle 1 angegebene Reinigungsformulierung wurde untersucht. Tabelle 1: Reinigungsformulierung (WAS 15 %)
Zu dieser Formulierung wurden NP 1 oder NP 27 gegeben. Die gemessenen Brookfield-Viskositätswerte nach 24 Stunden werden in Tabelle 2 und 3 zusammengefasst. Tabelle 2: Brookfield-Viskosität (25°C)
Zu dieser Formulierung wurden NP 1 oder NP 27 sowie danach Natriumchlorid gegeben. Die gemessenen Brookfield-Viskositätswerte nach 24 Stunden werden in den folgenden Tabellen zusammengefasst. Tabelle 13: Brookfield-Viskosität (25°C)

[3] = Foam height and foam stability of formulation; conditions: for h1: Schaumhöhe 5 Minuten nach dem Mischen; for h1 / h0: Lösung mit 0,5 % WAS; for h0: Schaumhöhe eine Minute nach dem Mischen; for Stabilität: Schaumstabilität (h1/h0)*100
Procedure: Die Schaumhöhe der Formulierungen wurde nach folgender Methode ermittelt: In einem 400 ml Becher wurden 100 g einer wässrigen Lösung mit 0,5 % WAS hergestellt. Für eine Minute wurde die Lösung bei […] runden […] wurde die […] Minute […]0) und 5 […]. Die Schaumstabilität in % ergibt sich dann über (h1/h0)*100.

[4] = pH of cleaning formulation after addition of terpene ether
[5] = Visual evaluation of foam (foam appearance, bubble size); design: key to Blasengröße nach 1 min. / Blasengröße nach 5 min.: klein (1); mittel (2); mittel-groß (3); groß (4); sehr groß (5); key to Aussehen des Schaums nach 1 min. / Aussehen des Schaums nach 5 min.: verschwindend (1); locker (2); mittelkompakt (3); sehr kompakt (4)
Procedure: Die Qualität des Schaums wurde visuell nach der folgenden Methode festgestellt: 100 g der Lösung mit 0,5 % WAS wurden in einen 250 ml Glaszylinder mit Schraubverschluss und einem Innendurchmesser von 35 mm überführt. Der Zylinder wurde 10 mal gedreht und die Blasengröße und die Schaumkompaktheit wurden nach einer Minute nach dem Mischen und nach 5 Minuten ermittelt. Dabei erfolgte die Beurteilung auf der Grundlage der folgenden beschreibenden Parameter:
Aussehen des Schaums: verschwindend (1), locker (2), mittelkompakt (3), sehr kompakt (4)
Blasengröße: klein (1), mittel (2), mittel-groß (3), groß (4), sehr groß (5) Tabelle 4: […]

[6] = Reinigungsformulierung enthaltend Coco Glucosid, +0,5 %
[7] = Reinigungsformulierung enthaltend Coco Glucosid, +1 %
[8] = Reinigungsformulierung enthaltend Coco Glucosid, +5 %
[9] = Reinigungsformulierung enthaltend Dinatriumlaurylsuccinat (wässrig), +0,5 %
[10] = Reinigungsformulierung enthaltend Dinatriumlaurylsuccinat (wässrig), +1 %
[11] = Reinigungsformulierung enthaltend Dinatriumlaurylsuccinat (wässrig), +5 %
[12] = Reinigungsformulierung enthaltend Dinatriumlaurylsuccinat (wässrig), +0,5 %, nach 24 Stunden
[13] = Reinigungsformulierung enthaltend Dinatriumlaurylsuccinat (wässrig), +1 %, nach 24 Stunden
[14] = Reinigungsformulierung enthaltend Dinatriumlaurylsuccinat (wässrig), +5 %, nach 24 Stunden
[15] = Reinigungsformulierung enthaltend Natriumlaurylethersulfat, Dinatriumcocoamphodiacetat, 0,5 % NaCl, +0,5 %, nach 24 Stunden
[16] = Reinigungsformulierung enthaltend Natriumlaurylethersulfat, Dinatriumcocoamphodiacetat, 0,5 % NaCl, +0,25 %, nach 24 Stunden
[17] = Reinigungsformulierung enthaltend Natriumlaurylethersulfat, Dinatriumcocoamphodiacetat, 0,5 % NaCl, +1 %, nach 24 Stunden
[18] = Reinigungsformulierung enthaltend Natriumlaurylethersulfat, Dinatriumcocoamphodiacetat, 0,5 % NaCl, +2 %, nach 24 Stunden
[19] = Reinigungsformulierung enthaltend Natriumlaurylethersulfat, Dinatriumcocoamphodiacetat, 1 % NaCl, +0,5 %, nach 24 Stunden
[20] = Reinigungsformulierung enthaltend Natriumlaurylethersulfat, Dinatriumcocoamphodiacetat, 1 % NaCl, +0,25 %, nach 24 Stunden
[21] = Reinigungsformulierung enthaltend Natriumlaurylethersulfat, Dinatriumcocoamphodiacetat, 1 % NaCl, +1 %, nach 24 Stunden
[22] = Reinigungsformulierung enthaltend Natriumlaurylethersulfat, Dinatriumcocoamphodiacetat, 1 % NaCl, +2 %, nach 24 Stunden
[23] = Reinigungsformulierung enthaltend Natriumlaurylethersulfat, Dinatriumcocoamphodiacetat, +0,5 %, nach 24 Stunden
[24] = Reinigungsformulierung enthaltend Natriumlaurylethersulfat, Dinatriumcocoamphodiacetat, +0,25 %, nach 24 Stunden
[25] = Reinigungsformulierung enthaltend Natriumlaurylethersulfat, Dinatriumcocoamphodiacetat, +1 %, nach 24 Stunden
[26] = Reinigungsformulierung enthaltend Natriumlaurylethersulfat, Dinatriumcocoamphodiacetat, +2 %, nach 24 Stunden
[27] = Reinigungsformulierung enthaltend Coco Glucosid, 0,5 %
[28] = Reinigungsformulierung enthaltend Coco Glucosid, 1 %
[29] = Reinigungsformulierung enthaltend Coco Glucosid, 5 %
[30] = Reinigungsformulierung enthaltend Dinatriumlaurylsuccinat (wässrig), 0,5 %
[31] = Reinigungsformulierung enthaltend Dinatriumlaurylsuccinat (wässrig), 1 %
[32] = Reinigungsformulierung enthaltend Dinatriumlaurylsuccinat (wässrig), 5 %

CC1(C)C2CCC1(C)C(OCC(O)CO)C2 (stereo not drawn) [NP 1, Glycerin-isobornylether]
Aussehen nach 24 h [1, 6]: transparent; also recorded: Gel-flüssig
Aussehen nach 24 h [1, 7]: transparent; also recorded: flüssig
Aussehen nach 24 h [1, 8]: weiß and flüssig
Aussehen nach 24 h [1, 9]: transparent; also recorded: flüssig
Aussehen nach 24 h [1, 10]: transparent; also recorded: Gel-flüssig
Aussehen nach 24 h [1, 11]: weiß and flüssig
Aussehen nach 24 h ([1]; Reinigungsformulierung enthaltend Natriumlaurylethersulfat, Dinatriumcocoamphodiacetat, 0,5 % NaCl, +0,5 %): transparent Gel-flüssig
Aussehen nach 24 h ([1]; Reinigungsformulierung enthaltend Natriumlaurylethersulfat, Dinatriumcocoamphodiacetat, 0,5 % NaCl, +0,25 %): transparent Gel-flüssig
Aussehen nach 24 h ([1]; Reinigungsformulierung enthaltend Natriumlaurylethersulfat, Dinatriumcocoamphodiacetat, 0,5 % NaCl, +1 %): transparent Gel
Aussehen nach 24 h ([1]; Reinigungsformulierung enthaltend Natriumlaurylethersulfat, Dinatriumcocoamphodiacetat, 0,5 % NaCl, +2 %): transparent flüssig
Aussehen nach 24 h ([1]; Reinigungsformulierung enthaltend Natriumlaurylethersulfat, Dinatriumcocoamphodiacetat, 1 % NaCl, +0,5 %): transparent Gel
Aussehen nach 24 h ([1]; Reinigungsformulierung enthaltend Natriumlaurylethersulfat, Dinatriumcocoamphodiacetat, 1 % NaCl, +0,25 %): transparent Gel
Aussehen nach 24 h ([1]; Reinigungsformulierung enthaltend Natriumlaurylethersulfat, Dinatriumcocoamphodiacetat, 1 % NaCl, +1 %): transparent Gel
Aussehen nach 24 h ([1]; Reinigungsformulierung enthaltend Natriumlaurylethersulfat, Dinatriumcocoamphodiacetat, 1 % NaCl, +2 %): transparent flüssig
Aussehen nach 24 h ([1]; Reinigungsformulierung enthaltend Natriumlaurylethersulfat, Dinatriumcocoamphodiacetat, +0,5 %): transparent flüssig
Aussehen nach 24 h ([1]; Reinigungsformulierung enthaltend Natriumlaurylethersulfat, Dinatriumcocoamphodiacetat, +0,25 %): transparent flüssig
Aussehen nach 24 h ([1]; Reinigungsformulierung enthaltend Natriumlaurylethersulfat, Dinatriumcocoamphodiacetat, +1 %): transparent Gel-flüssig
Aussehen nach 24 h ([1]; Reinigungsformulierung enthaltend Natriumlaurylethersulfat, Dinatriumcocoamphodiacetat, +2 %): transparent Gel-flüssig
BF-Viskosität (2,5 rpm) [2, 6]: 18200 mPas
BF-Viskosität (5 rpm) [2, 6]: 17800 mPas
BF-Viskosität (2,5 rpm) [2, 7]: 3400 mPas
BF-Viskosität (5 rpm) [2, 7]: 3300 mPas
BF-Viskosität (2,5 rpm) [2, 8]: 1600 mPas
BF-Viskosität (5 rpm) [2, 8]: 1100 mPas
BF-Viskosität (2,5 rpm) [2, 12]: 6200 mPas
BF-Viskosität (5 rpm) [2, 12]: 6100 mPas
BF-Viskosität (2,5 rpm) [2, 13]: 17600 mPas
BF-Viskosität (5 rpm) [2, 13]: 17200 mPas
BF-Viskosität (2,5 rpm) [2, 14]: 3800 mPas
BF-Viskosität (5 rpm) [2, 14]: 1800 mPas
BF-Viskosität (2,5 rpm) [2, 15]: 22800 mPas
BF-Viskosität (5 rpm) [2, 15]: 21000 mPas
BF-Viskosität (2,5 rpm) [2, 16]: 17200 mPas
BF-Viskosität (5 rpm) [2, 16]: 16100 mPas
BF-Viskosität (2,5 rpm) [2, 17]: 32000 mPas
BF-Viskosität (5 rpm) [2, 17]: 29600 mPas
BF-Viskosität (2,5 rpm) [2, 18]: 12800 mPas
BF-Viskosität (5 rpm) [2, 18]: 12600 mPas
BF-Viskosität (2,5 rpm) [2, 19]: 37600 mPas
BF-Viskosität (5 rpm) [2, 19]: 33200 mPas
BF-Viskosität (2,5 rpm) [2, 20]: 31200 mPas
BF-Viskosität (5 rpm) [2, 20]: 27600 mPas
BF-Viskosität (2,5 rpm) [2, 21]: 38400 mPas
BF-Viskosität (5 rpm) [2, 21]: 36000 mPas
BF-Viskosität (2,5 rpm) [2, 22]: 4400 mPas
BF-Viskosität (5 rpm) [2, 22]: 4200 mPas
BF-Viskosität (2,5 rpm) [2, 23]: 10400 mPas
BF-Viskosität (5 rpm) [2, 23]: 10200 mPas
BF-Viskosität (2,5 rpm) [2, 24]: 7200 mPas
BF-Viskosität (5 rpm) [2, 24]: 7200 mPas
BF-Viskosität (2,5 rpm) [2, 25]: 22800 mPas
BF-Viskosität (5 rpm) [2, 25]: 22000 mPas
BF-Viskosität (2,5 rpm) [2, 26]: 18400 mPas
BF-Viskosität (5 rpm) [2, 26]: 18200 mPas
h1 [3, 27]: 200 mm
h0 [3, 27]: 230 mm
Stabilität [3, 27]: 87%
h1 [3, 28]: 210 mm
h0 [3, 28]: 235 mm
Stabilität [3, 28]: 89%
h1 [3, 29]: 230 mm
h0 [3, 29]: 260 mm
Stabilität [3, 29]: 88%
h1 [3, 30]: 220 mm
h0 [3, 30]: 245 mm
Stabilität [3, 30]: 90%
h1 [3, 31]: 225 mm
h0 [3, 31]: 250 mm
Stabilität [3, 31]: 90%
h1 [3, 32]: 225 mm
h0 [3, 32]: 250 mm
Stabilität [3, 32]: 90%
pH [4, 6]: 6
pH [4, 7]: 6
pH [4, 8]: 6
pH [4, 9]: 6,3
pH [4, 10]: 6,3
pH [4, 11]: 6,3
Aussehen des Schaums nach 1 min. [5, 6]: 3
Aussehen des Schaums nach 5 min. [5, 6]: 1
Blasengröße nach 1 min. [5, 6]: 3
Blasengröße nach 5 min. [5, 6]: 5
Aussehen des Schaums nach 1 min. [5, 7]: 3
Aussehen des Schaums nach 5 min. [5, 7]: 1
Blasengröße nach 1 min. [5, 7]: 3
Blasengröße nach 5 min. [5, 7]: 5
Aussehen des Schaums nach 1 min. [5, 8]: 3
Aussehen des Schaums nach 5 min. [5, 8]: 1
Blasengröße nach 1 min. [5, 8]: 3
Blasengröße nach 5 min. [5, 8]: 5
Aussehen des Schaums nach 1 min. [5, 9]: 3
Aussehen des Schaums nach 5 min. [5, 9]: 2
Blasengröße nach 1 min. [5, 9]: 3
Blasengröße nach 5 min. [5, 9]: 4
Aussehen des Schaums nach 1 min. [5, 10]: 3
Aussehen des Schaums nach 5 min. [5, 10]: 2
Blasengröße nach 1 min. [5, 10]: 3
Blasengröße nach 5 min. [5, 10]: 4
Aussehen des Schaums nach 1 min. [5, 11]: 3
Aussehen des Schaums nach 5 min. [5, 11]: 1
Blasengröße nach 1 min. [5, 11]: 4
Blasengröße nach 5 min. [5, 11]: 5
